Assay in all cases: SPR
Holding throughout (type): binding

Experiment [1] deals with T1, serine hydroxymethyltransferase 2 (SHMT2) (Homo sapiens, UniProt P34897).
T1 sequence (P34897 22-504 limits assumed): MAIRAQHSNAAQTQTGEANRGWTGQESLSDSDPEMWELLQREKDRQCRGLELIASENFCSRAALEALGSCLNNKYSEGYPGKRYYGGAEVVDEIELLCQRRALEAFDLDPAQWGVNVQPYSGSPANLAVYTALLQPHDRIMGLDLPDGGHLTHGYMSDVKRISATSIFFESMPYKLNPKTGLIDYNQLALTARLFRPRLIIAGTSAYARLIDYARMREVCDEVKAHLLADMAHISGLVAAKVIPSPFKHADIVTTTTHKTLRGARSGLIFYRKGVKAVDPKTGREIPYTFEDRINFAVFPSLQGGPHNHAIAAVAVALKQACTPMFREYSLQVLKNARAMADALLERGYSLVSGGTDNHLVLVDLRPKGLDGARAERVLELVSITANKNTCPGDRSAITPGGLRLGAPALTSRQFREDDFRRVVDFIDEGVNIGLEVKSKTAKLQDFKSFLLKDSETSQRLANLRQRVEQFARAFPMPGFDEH

Experiment [2] concerns the target T1, serine hydroxymethyltransferase 2 (SHMT2). This is another data set of the same source.
The next experiment has as its target T2, SHMT1 (Homo sapiens, UniProt P34896).
T2 sequence (P34896 2-483): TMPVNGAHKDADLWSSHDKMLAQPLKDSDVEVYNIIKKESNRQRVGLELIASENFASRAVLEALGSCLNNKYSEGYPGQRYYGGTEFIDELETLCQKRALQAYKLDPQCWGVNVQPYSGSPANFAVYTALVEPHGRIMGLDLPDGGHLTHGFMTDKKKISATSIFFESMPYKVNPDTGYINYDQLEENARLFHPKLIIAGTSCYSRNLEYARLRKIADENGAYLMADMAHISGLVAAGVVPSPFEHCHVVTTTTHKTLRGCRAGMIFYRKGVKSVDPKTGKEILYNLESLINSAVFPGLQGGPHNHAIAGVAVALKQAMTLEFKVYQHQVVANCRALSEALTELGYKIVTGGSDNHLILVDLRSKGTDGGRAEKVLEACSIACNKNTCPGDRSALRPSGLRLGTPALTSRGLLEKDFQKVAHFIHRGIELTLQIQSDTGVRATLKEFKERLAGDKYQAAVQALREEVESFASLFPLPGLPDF

Results on 3 molecules are retold here after publication PMC9117551 (iScience, 2022).

As a reminder, the Kd is the constant that tells how readily two partners part at equilibrium. A lower Kd goes with tighter binding.

Where two headings read alike, the source gives them in different places.

With `CC1(C)[C@@H](OC(=O)CCC(=O)O)CC[C@]2(C)[C@H]3C(=O)C=C4[C@@H]5C[C@@](C)(C(=O)O)CC[C@]5(C)CC[C@@]4(C)[C@]3(C)CC[C@@H]12` [CBX, Carbenoxolone], in experiment [1], the affinity, expressed as Kd, was 15.1 µM.
For the molecule `CC1(C)[C@@H](O)CC[C@]2(C)[C@H]3C(=O)C=C4[C@@H]5C[C@@](C)(C(=O)O)CC[C@]5(C)CC[C@@]4(C)[C@]3(C)CC[C@@H]12` [GA, Glycyrrhetinic acid], the Kd in experiment [2] came out at 2.9 µM; at SHMT1, 2.37 µM.
In experiment [1], `Nc1nc2c(c(=O)[nH]1)NC(CNc1ccc(C(=O)N[C@@H](CCC(=O)O)C(=O)O)cc1)CN2` (stereo partly shown) [THF, Tetrahydrofolic acid] registered a Kd of 3.51 µM. This lies in the single-digit micromolar range.
